{"source": "patent US9387198B1", "about": "(priority 2015, dated 2016)", "key": {"[1]": {"molecular_target": "T1, human serum albumin (HSA) (Homo sapiens, UniProt P02768)", "T1 construct": "purchased Sigma Aldrich, St. Louis, Mo., USA", "T1 sequence (P02768 25-609)": "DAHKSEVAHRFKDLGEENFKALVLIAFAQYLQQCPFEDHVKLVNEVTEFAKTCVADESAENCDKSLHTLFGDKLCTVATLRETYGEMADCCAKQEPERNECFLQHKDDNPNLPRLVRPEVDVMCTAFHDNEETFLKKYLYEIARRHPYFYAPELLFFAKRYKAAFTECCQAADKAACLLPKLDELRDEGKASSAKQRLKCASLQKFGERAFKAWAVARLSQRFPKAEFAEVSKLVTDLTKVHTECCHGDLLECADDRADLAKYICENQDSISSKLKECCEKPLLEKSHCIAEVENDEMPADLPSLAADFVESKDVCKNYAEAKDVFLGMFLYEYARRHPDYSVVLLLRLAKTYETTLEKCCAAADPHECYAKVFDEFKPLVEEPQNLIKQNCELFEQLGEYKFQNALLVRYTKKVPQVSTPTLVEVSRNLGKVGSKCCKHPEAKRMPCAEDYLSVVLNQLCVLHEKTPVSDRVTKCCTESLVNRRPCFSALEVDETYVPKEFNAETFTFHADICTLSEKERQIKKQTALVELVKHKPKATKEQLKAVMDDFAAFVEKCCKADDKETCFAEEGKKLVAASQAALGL", "experiment": "Fluorescence-based anti-glycation assay (fructose-mediated glycation of HSA)", "format": "biochemical", "conditions": "compared to reference compound rutin", "protocol": "Prior to incubation, rutin (reference compound) and 6-nitrobenzimidazole derivatives were added to a reaction mixture to a final concentration of 1 mM. DMSO was used as a solvent (final concentration: 10%) in this assay.\nPercentage Inhibition=(1−Fluorescence of test compounds/Fluorescence of glycated-HSA)×100 Where, Test compounds=6-Nitrobenzimidazole derivatives"}, "[2]": {"experiment": "Cytotoxicity evaluation by MTT-assay", "conditions": "mouse, mouse fibroblast (3T3) cells", "description": "(§1) Cytotoxicity evaluation was also carried out against mouse fibroblast (3T3) cell-line by employing MTT-assay."}, "[3]": {"system": "rat hepatocytes (CC1-Cell line)", "experiment": "Fructose-derived AGE-induced intracellular ROS production (DCFH-DA technique)", "format": "cell-based", "conditions": "for effect on ROS production (in words): AGE 200 μg/mL; for Fluorescence (Average), AGE-mediated intracellular ROS production: co-incubated with AGEs 200 μg/mL, 24 hours", "protocol": "Procedure of the Assay: Briefly, 6×10^4 cells/mL cells (normal rat hepatocytes: CC1-Cell line) were seeded on a 96-well plate and kept for 24 hours in an incubator, containing 5% CO2 at 37° C. […] Initially the cells were incubated with 10 μM DCFH-DA non fluorescent probe, for 45 mins in the dark environment. […] The control was treated with 0.5% H2O2 just before 1 hour prior to halt the incubation period.\nDetection of Fluorescence Intensity: The intensity of fluorescence was measured at an excitation 490 nm and an emission 520 nm, using Spectra Max Spectrophotometer (Applied Biosystems, CA, USA).\nWhere, Blank=Normal rat hepatocytes Control=Rat hepatocytes treated with 0.5% […] Test compound=6-Nitrobenzimidazole derivative"}, "[4]": {"system": "rat hepatocytes (CC1-Cell line)", "experiment": "Fructose-derived AGE-mediated diminished growth of hepatocytes (MTT assay)", "format": "cell-based", "conditions": "for effect on hepatocytes growth and proliferation (in words) / Percentage Inhibition (remaining growth inhibition of hepatocytes versus normal cells): AGEs 200 μg/mL; for Percentage Inhibition (remaining growth inhibition of hepatocytes versus normal cells): lower = more growth restored; for Absorbance (Average), AGE-mediated diminished growth of the hepatocytes: co-incubated with AGEs 200 μg/mL, 540 nm", "protocol": "The mixture was incubated at 37° C. for 12 weeks under dark sterile environment. […] The cells treated with Triton X-100 were used as a blank, while normal cells remain untreated were used as a control.\nMTT Assay: Following 24 hours of incubation, the plate was decanted to remove the medium and the cells were washed with 1×PBS. The MTT-dye (50 μL: 2 mg/mL) was then loaded to each well. 200 μL (final reaction volume) was reconstituted by serum free-MEM (Minimum essential media) in a dark environment. The plate was incubated in 5% CO2 containing incubator at 37° C. for the next 4 hours. At the end of the incubation, the medium was removed and the crystals were dissolved by adding 100 μL DMSO into each well.\nMeasurement of Absorbance: The intensity of purple colored solution was measured at the wavelength of 540 nm, using Spectra Max Spectrophotometer (Applied Biosystems, CA, USA).\nWhere, Blank=Triton X-100 treated rat hepatocytes Control=Normal rat hepatocytes Test Compound=6-nitrobenzimidazole derivatives"}, "[5]": {"experiment": "in vitro", "conditions": "mouse", "description": "as §1"}, "[6]": {"conditions": "Rattus norvegicus, Hepatocyte, 24 h, read-out: Percentage Inhibition of AGE-mediated intracellular ROS production"}}}
{"smiles": "O=[N+]([O-])c1ccc2nc(-c3cccc(O)c3O)[nH]c2c1", "note": "[Compound 1, 3-(6-Nitro-1H-benzimidazol-2-yl)-1,2-benzenediol]", "values": [{"measurement": "anti-glycation activity (in words)", "setting": "[1]", "value": "significant anti-glycation activity"}, {"measurement": "cytotoxicity", "setting": "[2]", "value": 35.9, "unit": "%"}]}
{"smiles": "O=[N+]([O-])c1ccc2nc(-c3cc(O)ccc3O)[nH]c2c1", "note": "[Compound 2, 2-(6-Nitro-1H-benzimidazol-2-yl)-1,4-benzenediol]", "values": [{"measurement": "anti-glycation activity (in words)", "setting": "[1]", "value": "significant anti-glycation activity"}, {"measurement": "cytotoxicity", "setting": "[2]", "value": 21.1, "unit": "%"}]}
{"smiles": "O=[N+]([O-])c1ccc2nc(-c3ccsc3)[nH]c2c1", "note": "[Compound 3, 6-Nitro-2-(3-thienyl)-1H-benzimidazole]", "values": [{"measurement": "cytotoxicity", "setting": "[2]", "value": 19.7, "unit": "%"}]}
{"smiles": "O=[N+]([O-])c1ccc2nc(-c3ccc(O)c(O)c3O)[nH]c2c1", "note": "[Compound 4, 4-(6-Nitro-1H-benzimidazol-2-yl)-1,2,3-benzenetriol]", "values": [{"measurement": "anti-glycation activity (in words)", "setting": "[1]", "value": "significant anti-glycation activity"}, {"measurement": "inhibition at 24 µM", "setting": "[3]; [6]", "value": 63.6, "unit": "%"}, {"measurement": "inhibition at 33 µM", "setting": "[3]; [6]", "value": 89.2, "unit": "%"}, {"measurement": "inhibition at 49 µM", "setting": "[3]; [6]", "value": 93.4, "unit": "%"}, {"measurement": "effect on ROS production (in words)", "setting": "[3]; compound 24 μM", "value": "moderate activity against ROS production"}, {"measurement": "Fluorescence (Average), AGE-mediated intracellular ROS production", "setting": "[3]; compound 24 μM", "value": 138.8}, {"measurement": "effect on ROS production (in words)", "setting": "[3]; compound 33 μM", "value": "significantly impaired the ROS production"}, {"measurement": "Fluorescence (Average), AGE-mediated intracellular ROS production", "setting": "[3]; compound 33 μM", "value": 97.5}, {"measurement": "effect on ROS production (in words)", "setting": "[3]; compound 49 μM", "value": "inhibited the AGE-induced ROS production in rat hepatocytes in a remarkably significant manner"}, {"measurement": "Fluorescence (Average), AGE-mediated intracellular ROS production", "setting": "[3]; compound 49 μM", "value": 90.7}, {"measurement": "effect on hepatocytes growth and proliferation (in words)", "setting": "[4]; compound 24 μM", "value": "significant effect on the growth and proliferation"}, {"measurement": "Percentage Inhibition (remaining growth inhibition of hepatocytes versus normal cells)", "setting": "[4]; compound 24 μM, 24 hours", "value": 35.8, "unit": "%"}, {"measurement": "Absorbance (Average), AGE-mediated diminished growth of the hepatocytes", "setting": "[4]; compound 24 μM, 24 hours", "value": 0.91}, {"measurement": "effect on hepatocytes growth and proliferation (in words)", "setting": "[4]; compound 33 μM, 24 hours", "value": "significantly restored the growth and proliferation"}, {"measurement": "Percentage Inhibition (remaining growth inhibition of hepatocytes versus normal cells)", "setting": "[4]; compound 33 μM, 24 hours", "value": 34.3, "unit": "%"}, {"measurement": "Absorbance (Average), AGE-mediated diminished growth of the hepatocytes", "setting": "[4]; compound 33 μM, 24 hours", "value": 0.93}, {"measurement": "effect on hepatocytes growth and proliferation (in words)", "setting": "[4]; compound 49 μM", "value": "as effective as 33 μM concentration in reducing the toxicity of AGEs"}, {"measurement": "Percentage Inhibition (remaining growth inhibition of hepatocytes versus normal cells)", "setting": "[4]; compound 49 μM, 24 hours", "value": 22.2, "unit": "%"}, {"measurement": "Absorbance (Average), AGE-mediated diminished growth of the hepatocytes", "setting": "[4]; compound 49 μM, 24 hours", "value": 1.05}, {"measurement": "cytotoxicity", "setting": "[2]", "value": 9.8, "unit": "%"}]}
{"smiles": "O=[N+]([O-])c1ccc2nc(-c3c(O)cc(O)cc3O)[nH]c2c1", "note": "[Compound 5, 2-(6-Nitro-1H-benzimidazol-2-yl)-1,3,5-benzenetriol]", "values": [{"measurement": "cytotoxicity", "setting": "[2]", "value": 4, "unit": "%"}]}
{"smiles": "O=[N+]([O-])c1ccc2nc(-c3ccc(O)c(O)c3)[nH]c2c1", "note": "[Compound 6, 4-(6-Nitro-1H-benzimidazol-2-yl)-1,2-benzenediol]", "values": [{"measurement": "anti-glycation activity (in words)", "setting": "[1]", "value": "significant anti-glycation activity"}, {"measurement": "cytotoxicity", "setting": "[2]", "value": 3.4, "unit": "%"}]}
{"smiles": "O=[N+]([O-])c1ccc2nc(-c3ccc(O)cc3O)[nH]c2c1", "note": "[Compound 7, 4-(6-Nitro-1H-benzimidazol-2-yl)-1,3-benzenediol]", "values": [{"measurement": "anti-glycation activity (in words)", "setting": "[1]", "value": "significant anti-glycation activity"}, {"measurement": "cytotoxicity", "setting": "[5]", "value": 37.4, "unit": "%"}]}
{"smiles": "Cc1ccc(-c2nc3cc([N+](=O)[O-])ccc3[nH]2)cc1", "note": "[Compound 8, 2-(4-Methylphenyl)-6-nitro-1H-benzimidazole]", "values": [{"measurement": "cytotoxicity", "setting": "[2]", "value": 59.2, "unit": "%"}]}
{"smiles": "O=[N+]([O-])c1ccc(-c2nc3cc([N+](=O)[O-])ccc3[nH]2)cc1", "note": "[Compound 9, 6-Nitro-2-(4-nitrophenyl)-1H-benzimidazole]", "values": [{"measurement": "cytotoxicity", "setting": "[2]", "value": 45.2, "unit": "%"}]}
{"smiles": "O=[N+]([O-])c1ccc2nc(-c3ccc(O)cc3)[nH]c2c1", "note": "[Compound 10, 4-(6-Nitro-1H-benzimidazol-2-yl) phenol]", "values": [{"measurement": "cytotoxicity", "setting": "[2]", "value": 3.6, "unit": "%"}]}
